This is an account of results in PMC12040169 (PLOS Biology, 2025).

As usually defined, the viability is a read-out of living cells in per cent, often relative to untreated cells.

Molecules are shown by their SMILES.

A short description of one data set: in vitro. To be noted: human, hela cells.
On to `CS(=O)(=O)c1ccc(-c2ccc3c(c2)OCCN(C2CCN(C(=O)Oc4ccccc4)CC2)C3)cc1` [CBK169259], for which the viability at 28.5 h, 10 µM was 79.9%.

Staying with this data set, now noted: human, hela cells, % viability.
For `O=S(=O)(CC(F)(F)F)N(c1ccccc1)C1CCNCC1` [CBK165093T], the viability at 28.5 h, 10 µM worked out at 92.6%.

In the case of `O=C1CCCN1c1ccc(S(=O)(=O)N(c2ccccc2)C2CCNCC2)cc1` [CBK165122T], the viability at 28.5 h, 10 µM turned out to be 109%.

Regarding `CC(C)CCN(Cc1ccc(-c2ccc(S(C)(=O)=O)cc2)nc1)C1CCN(C(=O)OC(C)(C)C)CC1` [CBK165138], the viability at 28.5 h, 10 µM came to 83.4%.

`COCCNC(=O)c1cnn2c(C)c(Cc3ccccc3C(F)(F)F)c(C)nc12` [CBK165210]: the viability at 28.5 h, 10 µM was 95.7%.

`CC(C)COC(=O)N1CCC(N(C)Cc2ccc(-c3ccc(S(C)(=O)=O)cc3)nc2)CC1` [CBK165259T]: the viability at 28.5 h, 10 µM came to 90.4%.

Regarding `CC(C)OC(=O)N1CCC(N(C)Cc2ccc(-c3ccc(S(C)(=O)=O)cc3)nc2)CC1` [CBK165261T], the viability at 28.5 h, 10 µM was 121%.

For the compound `COc1ccc(S(=O)(=O)N(Cc2cc(F)cc(F)c2)C2CCNCC2)cc1` [CBK165292T], the viability at 28.5 h, 10 µM turned out to be 89.8%.

As to `CC1CCN(Cc2ccc(-c3cn(CC(=O)NCc4ccc(Br)cc4F)nn3)cc2)CC1` [CBK165756C], the viability at 28.5 h, 10 µM was determined as 91.1%.

As for `CC(C)(C)OC(=O)N1CCC(N2CCc3cc(-c4ccc(S(C)(=O)=O)cc4)ccc3C2)CC1` [CBK165796], the viability at 28.5 h, 10 µM was determined as 82.7%.

Turning to `Cc1cccc(C(=O)N2CCC(N(C)Cc3ccc(-c4ccc(S(C)(=O)=O)cc4)nc3)CC2)n1` [CBK165937T], the viability at 28.5 h, 10 µM was found to be 81.5%.

For `CN(Cc1ccc(-c2ccc(S(C)(=O)=O)cc2)nc1)C1CCN(C(=O)c2cc(Cl)ccc2Cl)CC1` [CBK165943T], the viability at 28.5 h, 10 µM amounted to 84.5%.

Regarding `CC1CCN(Cc2ccc(-c3cn(CC(=O)NCc4ccc(Br)cc4)cn3)cc2)CC1` [CBK165969], the viability at 28.5 h, 10 µM amounted to 104%.

For `CC(C)CCNCc1ccc(-c2cn(CC(=O)NCc3ccc(C(F)(F)F)cc3)cn2)cc1` [CBK165976], the viability at 28.5 h, 10 µM came out at 91.7%.

For `N#Cc1ccc(-c2cncc(NC3CCC(O)CC3)n2)cc1` (stereo not drawn) [CBK166007T], the viability at 28.5 h, 10 µM was found to be 88.2%.

In the case of `COc1ccc2c(c1)OC1(CCN(C(=O)c3cc(OC)c(C)c(OC)c3)CC1)NC2=O` [CBK166244], the viability at 28.5 h, 10 µM stood at 82.6%.

Regarding `COc1ccc(C(=O)N2CCC3(CC2)NC(=O)c2ccc(C(F)(F)F)cc2O3)cc1OC` [CBK166265], the viability at 28.5 h, 10 µM was determined as 102%.

Regarding `COc1ccc2c(c1)C(=O)NC1(CCN(C(=O)c3ccc(OC)c(C)c3)CC1)O2` [CBK166291], the viability at 28.5 h, 10 µM stood at 106%.

`CCCN(C)Cc1ccc(-c2cn(CC(=O)NCc3ccc4c(c3)OC(F)(F)O4)nn2)cc1` [CBK166361]: the viability at 28.5 h, 10 µM turned out to be 101%.

As for `CCCN(C)Cc1ccc(-c2cn(CC(=O)NCc3ccc(OCC(F)F)cc3)nn2)cc1` [CBK166365], the viability at 28.5 h, 10 µM stood at 106%.

In the case of `COc1ccc(S(=O)(=O)N2CCC3(CC2)CC(=O)c2ccc(C)cc2O3)cc1OC` [CBK166515], the viability at 28.5 h, 10 µM turned out to be 96.8%.

In the case of `COc1cc(NC(=O)N2CCC3(CC2)CC(=O)c2ccc(C)cc2O3)cc(OC)c1` [CBK166521], the viability at 28.5 h, 10 µM was 90.3%.

Turning to `CC(C)(C)OC(=O)N1CCC(N(CCC(F)(F)F)Cc2ccc(-c3ccc(S(C)(=O)=O)cc3)nc2)CC1` [CBK167262], the viability at 28.5 h, 10 µM is 81%.

As for `Cc1cc(N2CCC(O)CC2)nc(N)n1` [CBK167265], the viability at 28.5 h, 10 µM is 109%.

With `Cc1cc(N2CCC(N(C)C)CC2)nc(N)n1` [CBK167267], the viability at 28.5 h, 10 µM was determined as 106%.

On to `Cc1nc2c(C(=O)NCCOCCO)cnn2c(C)c1Cc1cccc(OC(F)(F)F)c1` [CBK167454], for which the viability at 28.5 h, 10 µM stood at 114%.

With `Cc1nc2c(C(=O)NCC3OCCO3)cnn2c(C)c1Cc1ccc(Br)cc1` [CBK167467], the viability at 28.5 h, 10 µM was determined as 99.8%.

Regarding `CC(C)(O)CCN(Cc1ccc(-c2ccc(S(C)(=O)=O)cc2)nc1)C1CCN(C(=O)OC(C)(C)C)CC1` [CBK167517], the viability at 28.5 h, 10 µM was found to be 101%.

As to `CCCNCc1ccc(-c2nnn(CC(=O)NCc3ccc(C4CCC4)cc3)n2)cc1` [CBK167525C], the viability at 28.5 h, 10 µM is 105%.

As to `CN(C)CCNC(=O)c1ccc(-c2cnc(OCC3CCN(C(=O)OC(C)(C)C)CC3)nc2)cc1` [CBK167544], the viability at 28.5 h, 10 µM is 89.8%.

Consider `C[C@H](NC(=O)Cn1cc(-c2ccc(CN3CCCC3)cc2)nn1)c1ccc(Br)cc1` [CBK167692], for which the viability at 28.5 h, 10 µM stood at 86%.

Take `COc1cc(OC)cc(C(=O)N2CCC3(CC2)CC(=O)c2cc(C)ccc2O3)c1` [CBK167804]: the viability at 28.5 h, 10 µM was determined as 94.6%.

Turning to `Cc1cc(N2CCC(N3CCN(C)CC3)CC2)nc(N)n1` [CBK167964], the viability at 28.5 h, 10 µM is 94.3%.

With `CCOc1cc(OCC)cc(C(=O)N2CCC3(CC2)CC(=O)c2cc(CC)ccc2O3)c1` [CBK168009], the viability at 28.5 h, 10 µM came out at 101%.

Regarding `CCOc1cc(OCC)cc(C(=O)N2CCC3(CC2)CC(=O)c2cc(OCC)ccc2O3)c1` [CBK168013], the viability at 28.5 h, 10 µM was 87.2%.

For `CCOc1cc(OCC)cc(C(=O)N2CCC3(CC2)CC(=O)c2ccc(OCC)c(C)c2O3)c1` [CBK168015], the viability at 28.5 h, 10 µM came to 112%.

With `CCOc1cc(OCC)cc(C(=O)N2CCC3(CC2)CC(=O)c2ccc(N)cc2O3)c1` [CBK168018], the viability at 28.5 h, 10 µM came to 111%.

In the case of `CCc1ccc2c(c1)C(=O)CC1(CCN(C(=O)c3cc(OC)c(C)c(OC)c3)CC1)O2` [CBK168098], the viability at 28.5 h, 10 µM turned out to be 112%.

Regarding `COc1cc(C(=O)N2CCCC3(CC(=O)c4ccc(C)cc4O3)C2)cc(OC)c1C` (stereo not drawn) [CBK168239], the viability at 28.5 h, 10 µM was 87.2%.

In the case of `COc1cc(C(=O)N2CCC3(CC2)CC(=O)c2cc(C)ccc2O3)cc(-c2ccc(OC)c(OC)c2)c1` [CBK168271], the viability at 28.5 h, 10 µM was determined as 88.9%.

On to `COc1cc(C(=O)N2CCC3(CC2)CC(=O)c2ccc(C)cc2O3)cc(-c2ccc(OC)c(OC)c2)c1` [CBK168282], for which the viability at 28.5 h, 10 µM amounted to 89.5%.

Regarding `NC1CCN(C(=O)c2cn(C3CC3)c3cc(Cl)c(F)cc3c2=O)CC1` [CBK168626], the viability at 28.5 h, 10 µM amounted to 93.3%.

`O/N=C/c1c[nH]c2ccccc12` [CBK168630]: the viability at 28.5 h, 10 µM was found to be 102%.

As to `CCOc1cc(OCC)cc(C(=O)N2CCC3(CC2)CC(=O)c2cc(OCCN(C)C)ccc2O3)c1` [CBK169003T], the viability at 28.5 h, 10 µM was 89.3%.

In the case of `COc1cc(OC)cc(C(=O)N2CCC3(CC2)CC(=O)c2ccc(OCCN(C)C)cc2O3)c1` [CBK169008T], the viability at 28.5 h, 10 µM was 92.8%.

For `COc1cc(C(=O)N2CCC3(CC2)CC(=O)c2ccc(-c4ccccc4)cc2O3)cc(OC)c1C` [CBK169037], the viability at 28.5 h, 10 µM worked out at 89.9%.

`COc1cc(C(=O)N2CCC3(CC2)CC(=O)c2cc(CN4CCOCC4)ccc2O3)cc(OC)c1C` [CBK169182]: the viability at 28.5 h, 10 µM stood at 109%.

`COc1cc(C(=O)N2CCC3(CC2)CC(=O)c2cc(CN4CCN(C)CC4)ccc2O3)cc(OC)c1C` [CBK169185]: the viability at 28.5 h, 10 µM was 94.6%.

For `O=C(CCCC1CCNCC1)Nc1nnc(C2CC2)s1` [CBK169224], the viability at 28.5 h, 10 µM was determined as 97.1%.

For the compound `CS(=O)(=O)c1ccc(-c2ccc3c(c2)OCCN(C2CCN(C(=O)CC(F)(F)F)CC2)C3)cc1` [CBK169260], the viability at 28.5 h, 10 µM was determined as 90.8%.

`CS(=O)(=O)c1ccc(-c2ccc3c(c2)CN(C2CCN(C(=O)c4ccccc4)CC2)CCO3)cc1` [CBK169265]: the viability at 28.5 h, 10 µM stood at 103%.
